Laboratory results: patent US11129827B2 (priority 2017, dated 2021)
Where two headings read alike, the source gives them in different places.

How the values were obtained:
FAAH = FAAH (Homo sapiens (Human), UniProt O00519); test: biochemical; conditions: for inhibition at 1 µM: read-out: FAAH (human) % inh. 1 μM
MAGL = MAGL (Homo sapiens (Human), UniProt Q99685); test: biochemical; conditions: for inhibition at 1 µM: read-out: MAGL (human) % inh. 1 μM

| SMILES | inhibition at 1 µM (FAAH) | inhibition at 1 µM (MAGL) | IC50 (FAAH; read-out: FAAH (human) IC50) | IC50 (MAGL; read-out: MAGL (human) IC50) | IC50 (MAGL) | IC50 (FAAH) |
| --- | --- | --- | --- | --- | --- | --- |
| O=C(Oc1cncc(C(F)(F)F)c1)N1CCC2(CC1)CN(Cc1cccc(Oc3ccc(C(F)(F)F)cn3)c1)C2 [Example 37, 5-(Trifluoromethyl)pyridin-3-yl 2-(3-((5-(trifluoromethyl)pyridin-2-yl)oxy)benzyl)-2,7-diazaspiro[3.5]nonane-7-carboxylate] | > 75% | > 75% |  |  |  |  |
| CC(C)Oc1cc(CN2CCN(C(=O)Oc3cncc(C(N)=O)c3)[C@H](C)C2)ccc1Cl [Example 56, (R)-5-Carbamoylpyridin-3-yl 4-(4-chloro-3-isopropoxybenzyl)-2-methylpiperazine-1-carboxylate] | > 75% | > 75% | 100 to 1000 nM | 100 to 1000 nM |  |  |
| O=C(Oc1cncc(C(F)(F)F)c1)N1CCC2(CC1)CN(Cc1cccc(Oc3cccc(Cl)c3)c1Cl)C2 [Example 40, 5-(Trifluoromethyl)pyridin-3-yl 2-(2-chloro-3-(3-chlorophenoxy)benzyl)-2,7-diazaspiro[3.5]nonane-7-carboxylate] | > 75% | > 75% | 100 to 1000 nM |  | < 100 nM |  |
| N#Cc1cncc(OC(=O)N2CCN(Cc3cccc(Oc4ncccn4)c3)CC2)c1 [Example 50, 5-Cyanopyridin-3-yl 4-(3-(pyrimidin-2-yloxy)benzyl)piperazine-1-carboxylate] | > 75% | > 75% | 100 to 1000 nM |  | < 100 nM |  |
| NC(=O)c1cncc(OC(=O)N2CCC3(CC2)CN(Cc2cccc(Oc4ccc(Cl)cc4)c2)C3)c1 [Example 5, 5-Carbamoylpyridin-3-yl 2-(3-(4-chlorophenoxy)benzyl)-2,7-diazaspiro[3.5]nonane-7-carboxylate] | > 75% | > 75% | < 100 nM | < 100 nM |  |  |
| Cc1c(CN2CCN(C(=O)Oc3cncc(C(N)=O)c3)[C@H](C)C2)cccc1C(F)(F)F [Example 58, (R)-5-Carbamoylpyridin-3-yl 2-methyl-4-(2-methyl-3-(trifluoromethyl)benzyl)piperazine-1-carboxylate] | > 75% | > 75% |  | 100 to 1000 nM |  | < 100 nM |
| Cc1ncc(C#N)cc1OC(=O)N1CCN(Cc2cccc(C(F)(F)F)c2C)C[C@H]1C [Example 21, 5-Cyano-2-methylpyridin-3-yl (R)-2-methyl-4-(2-methyl-3-(trifluoromethyl)benzyl)piperazine-1-carboxylate] | > 75% | 25 to 50% | 100 to 1000 nM |  | 1000 to 10000 nM |  |
| O=C(Oc1cncc(C(F)(F)F)c1)N1CCC2(CC1)CN(Cc1cccc(Oc3ccc(C(F)(F)F)nc3)c1)C2 [Example 39, 5-(Trifluoromethyl)pyridin-3-yl 2-(3-((6-(trifluoromethyl)pyridin-3-yl)oxy)benzyl)-2,7-diazaspiro[3.5]nonane-7-carboxylate] | > 75% | > 75% | 100 to 1000 nM | 100 to 1000 nM |  |  |
| O=C(Oc1cncc(C(F)(F)F)c1)N1CCC2(CC1)CN(Cc1ccc(Oc3cncnc3)cc1)C2 [Example 34, 5-(Trifluoromethyl)pyridin-3-yl 2-(4-(pyrimidin-5-yloxy)benzyl)-2,7-diazaspiro[3.5]nonane-7-carboxylate] |  |  |  | 100 to 1000 nM |  | 1000 to 10000 nM |
| Cc1c(C#N)cncc1OC(=O)N1CCN(Cc2cccc(C(F)(F)F)c2C)C[C@H]1C [Example 83, 5-Cyano-4-methylpyridin-3-yl (R)-2-methyl-4-(2-methyl-3-(trifluoromethyl)benzyl)piperazine-1-carboxylate] | > 75% | > 75% |  | 100 to 1000 nM |  | < 100 nM |
| CC(C)Oc1cc(CN2CCN(C(=O)Oc3cncc(C(N)=O)c3)[C@@H](C)C2)ccc1Cl [Example 57, (S)-5-Carbamoylpyridin-3-yl 4-(4-chloro-3-isopropoxybenzyl)-2-methylpiperazine-1-carboxylate] |  | > 75% |  |  |  |  |
| O=C(Oc1cncc(C(F)(F)F)c1)N1CCC2(CC1)CN(Cc1cccc(Oc3cncnc3)c1)C2 [Example 11, 5-(Trifluoromethyl)pyridin-3-yl 2-(3-(pyrimidin-5-yloxy)benzyl)-2,7-diazaspiro[3.5]nonane-7-carboxylate] |  |  | 100 to 1000 nM | 100 to 1000 nM |  |  |
| C[C@@H]1CN(Cc2cccc(C(F)(F)F)c2Cl)CCN1C(=O)Oc1cncc(C(N)=O)c1 [Example 66, (R)-5-Carbamoylpyridin-3-yl 4-(2-chloro-3-(trifluoromethyl)benzyl)-2-methylpiperazine-1-carboxylate] | > 75% | > 75% | < 100 nM | < 100 nM |  |  |
| O=C(Oc1cncc(C(F)(F)F)c1)N1CCC2(CC1)CC(Oc1cccc(C(=O)N3CCCC3)c1)C2 [Example 26, 5-(Trifluoromethyl)pyridin-3-yl 2-(3-(pyrrolidine-1-carbonyl)phenoxy)-7-azaspiro[3.5]nonane-7-carboxylate] | > 75% | > 75% | 100 to 1000 nM |  | < 100 nM |  |
| O=C(Oc1cncc(C(F)(F)F)c1)N1CCC2(CC1)CC(Oc1cccc(COc3ccc(Cl)cc3)c1)C2 [Example 29, 5-(Trifluoromethyl)pyridin-3-yl 2-(3-((4-chlorophenoxy)methyl)phenoxy)-7-azaspiro[3.5]nonane-7-carboxylate] | > 75% | > 75% |  | 100 to 1000 nM |  | < 100 nM |
| O=C(Oc1cncc(C(F)(F)F)c1)N1CCC2(CC1)CN(Cc1ccc(Oc3ccccc3Cl)cc1)C2 [Example 8, 5-(Trifluoromethyl)pyridin-3-yl 2-(4-(2-chlorophenoxy)benzyl)-2,7-diazaspiro[3.5]nonane-7-carboxylate] |  |  | 100 to 1000 nM |  | < 100 nM |  |
| O=C(Oc1cncc(C(F)(F)F)c1)N1CCC2(CC1)CN(Cc1cccc(Oc3ccccc3Cl)c1)C2 [Example 9, 5-(Trifluoromethyl)pyridin-3-yl 2-(3-(2-chlorophenoxy)benzyl)-2,7-diazaspiro[3.5]nonane-7-carboxylate] |  |  | 100 to 1000 nM | 100 to 1000 nM |  |  |
| O=C(Oc1cncc(C(F)(F)F)c1)N1CCC2(CC1)CN(Cc1cccc(Oc3ccnnc3)c1)C2 [Example 33, 5-(Trifluoromethyl)pyridin-3-yl 2-(3-(pyridazin-4-yloxy)benzyl)-2,7-diazaspiro[3.5]nonane-7-carboxylate] | 25 to 50% | 50 to 75% |  |  |  |  |
| Cc1c(OC(=O)N2CCN(Cc3cccc(C(F)(F)F)c3C)C[C@H]2C)cncc1C(N)=O [Example 82, 5-Carbamoyl-4-methylpyridin-3-yl (R)-2-methyl-4-(2-methyl-3-(trifluoromethyl)benzyl)piperazine-1-carboxylate] | > 75% | 0 to 25% |  |  |  |  |
| CC1CCCN1c1ccc(CN2CCN(C(=O)Oc3cncc(C(N)=O)c3)CC2)c(OC(F)(F)F)c1 (stereo not drawn) [Example 17, 5-Carbamoylpyridin-3-yl 4-(4-(2-methylpyrrolidin-1-yl)-2-(trifluoromethoxy)benzyl)piperazine-1-carboxylate] | > 75% | > 75% | 100 to 1000 nM |  | < 100 nM |  |
